Test results: patent US9034359B2, “Composition comprising biodegradable hydrating ceramics for controlled drug delivery” (Lidds AB, priority 2003, dated 2015)

Test: Dog study: plasma concentration of 2-hydroxyflutamide after implant in prostate tissue
Assay type: in vivo
Details: 30, 60 or 120 mg in calcium sulphate-water implant in prostate tissue
Description: Composition according to example 1, composition 2, with three different 2-hydroxyflutamide (HT) concentrations, was tested in a dog study. The concentration profile of HT in prostate tissue in male dogs after local administration of the composition was investigated at different time points. Also a reference implant without HT was implanted in one dog.
Three male dogs are given 30, 60 or 120 mg of 2-hydroxy-flutamide by local implant delivery system in the prostate tissue; the total implantation time was 3 weeks.
The implant drug delivery system was inserted locally into the prostate tissue through sterile needles during rectal ultrasound guidance. The animals were under anesthesia during the insertion procedure.
Blood samples were taken every day for the first week and then once a week for the remaining weeks. Plasma samples were collected in tubes with EDTA and the plasma were transferred to microtubes of 2 ml, (sterile kryotubes from Sarstedt; No. 694.005).
The quantification of the parent drug, 2-hydroxyflutamide, in the plasma and tissue samples, was done by HPLC-MS analysis.

Structure (SMILES): CC(C)(O)C(=O)Nc1ccc([N+](=O)[O-])c(C(F)(F)F)c1 [2-hydroxyflutamide]
- extended plasma profile duration: 3 to 6 days
